In ChEMBL document CHEMBL1141792, “Swartziarboreol diterpenes from Swartzia langsdorffii Raddi” (J Nat Prod, 2005):
Active and inactive are the calls of the source. The calls are words filed in the database; no cut-off is given here.

Tested on: Staphylococcus aureus
Test: Antibacterial activity against Staphylococcus aureus CCT 4295
Assay type: functional, organism-based

SMILES: COc1c(O)c2c(c3c1CCOC3=O)CC[C@H]1C(C)(C)CCC[C@]21C
- Activity: Active
